Test results reported in patent US7511041B2, “Fused azole-pyrimidine derivatives” (Bayer Pharmaceuticals Corporation, priority 2002, dated 2009).
Structures can show the parent of a compound that is named as a salt.

| melting point | Structure (SMILES) |
| --- | --- |
| 309 °C | Cl.O=C(NC1=Nc2ccc(Cl)cc2C2=NCCN12)c1cccnc1 [Example 2-85] |
| 273 °C (dec.) | COc1ccc2c(c1)N=C(NC(=O)c1ccc(N)nc1)N1CCN=C21.Cl [Example 2-24] |
| 237 °C (dec.) | COc1cccc2c1N=C(NC(=O)c1cccnc1)N1CCN=C21.Cl [Example 2-115] |
| 270 °C | Cl.O=C(NC1=Nc2c(cccc2C(F)(F)F)C2=NCCN12)c1ccc2[nH]cnc2c1 [Example 2-113] |
| 225 °C (dec.) | COc1cccc2c1N=C(NC(=O)c1cc3cccnc3nc1C)N1CCN=C21.Cl [Example 2-127] |
| > 290 °C | Cc1cccc2c1N=C(NC(=O)c1cccnc1)N1CCN=C21.Cl [Example 2-108] |
| 289 °C (dec.) | COc1cc(OC)c2c(c1)C1=NCCN1C(NC(=O)c1ccc3[nH]cnc3c1)=N2.Cl [Example 2-73] |
| 260 °C (dec.) | COc1cc2c(cc1OC)C1=NCCN1C(NC(=O)c1cncc(O)c1)=N2.Cl [Example 2-55] |
| 272 °C (dec.) | COc1cncc(C(=O)NC2=Nc3ccccc3C3=NCCN23)c1.Cl [Example 2-141] |
| 229 °C (dec.) | Cl.O=C(NC1=Nc2cc(OCCOCCO)ccc2C2=NCCN12)c1cccnc1 [Example 2-202] |
| 278 °C (dec.) | COc1ccc2c(c1OC)N=C(NC(=O)c1ccc3[nH]cnc3c1)N1CCN=C21.Cl [Example 2-50] |

The remaining lines, values behind:

| Structure (SMILES) | melting point |
| --- | --- |
| CC(=O)Nc1ccc(/C(O)=C/C2=Nc3cc(CN4CCOCC4)ccc3C3=NCCN23)cn1.Cl [Example 1-114] | 260 °C |
| Cc1ccc2c(c1)C1=NCCN1C(/C=C(\O)c1cccnc1)=N2.Cl [Example 1-132] | > 290 °C |
| COc1c(OCC(=O)N(C)C)ccc2c1N=C(/C=C(\O)c1cccnc1)N1CCN=C21.Cl [Example 1-28] | 205 °C (dec.) |
| COc1c(OCCCC(=O)O)ccc2c1N=C(/C=C(\O)c1cccnc1)N1CCN=C21 (as salt: hydrochloride) [Example 1-7, 4-{[5-(2-Hydroxy-2-pyridin-3-ylvinyl)-7-methoxy-2,3-dihydroimidazo[1,2-c]quinazolin-8-yl]oxy}butanoic acid hydrochloride] | 249 to 251 °C |
| COc1cc2c(cc1OC)C1=NCCN1C(/C=C(\O)c1sc(C)nc1C)=N2.Cl [Example 1-61] | 268 to 271 °C |
| Cc1cc(Br)c2c(c1)C1=NCCN1C(/C=C(\O)c1ccc3[nH]cnc3c1)=N2.Cl [Example 1-48] | > 285 °C |
| COc1c(OCCO)ccc2c1N=C(/C=C(\O)c1cccnc1)N1CCN=C21.Cl [Example 1-17] | 215 °C (dec.) |
| Cc1ccc(/C(O)=C/C2=Nc3ccccc3C3=NCCN23)cn1.Cl [Example 1-137] | > 300 °C |
| COc1cc2c(c(OC)c1C)N=C(/C=C(\O)c1ccc(NC(C)=O)nc1)N1CCN=C21.Cl [Example 1-65] | > 285 °C |
| Cl.O/C(=C\C1=Nc2ccccc2C2=NCCN12)c1csc2ccccc12 [Example 1-181] | > 300 °C |
| CC(=O)Nc1ccc(/C(O)=C/C2=Nc3cc(N4CCN(C)CC4)ccc3C3=NCCN23)cn1.Cl [Example 1-106] | 280 °C (dec.) |
| COc1ccc2c(c1OCCN1CCOCC1)N=C(/C=C(\O)c1cccnc1)N1CCN=C21.Cl [Example 1-37] | 215 °C |
| Cl.O/C(=C\C1=Nc2c(OCCN3CCOCC3)cccc2C2=NCCN12)c1cccnc1 [Example 1-85] | 261 to 262 °C |
| COc1cc2c(c(OC)c1C)N=C(/C=C(\O)c1ccc3[nH]cnc3c1)N1CCN=C21.Cl [Example 1-67] | > 285 °C |
| Cl.O/C(=C\C1=Nc2c(OCC3CC3)cccc2C2=NCCN12)c1cccnc1 [Example 1-89] | > 300 °C |
| Cc1cccc2c1N=C(/C=C(\O)c1cccnc1)N1CCN=C21.Cl [Example 1-76] | > 290 °C |
| COc1c(OCc2nn[nH]n2)ccc2c1N=C(/C=C(\O)c1cccnc1)N1CCN=C21.Cl [Example 1-197] | 217 to 218 °C |
